PubChem BioAssay (NCI)
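Following 48 hours of exposure in 96-well plates, responses at five concentrations were used to interpolate endpoints linearly. Abbreviation: GI50, concentration required for 50% inhibition of growth. The concentration for full growth arrest is given as TGI.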

How the values were obtained:
Assay in all cases: growth of human tumour cells (NCI), 48 h
786-0 renal = test system: 786-0 renal
A498 renal = test system: A498 renal
A549 NSCLC = test system: A549 NSCLC
ACHN renal = test system: ACHN renal
BT-549 breast = test system: BT-549 breast
CAKI-1 renal = test system: CAKI-1 renal
CCRF-CEM leukemia = test system: CCRF-CEM leukemia
COLO 205 colon = test system: COLO 205 colon
DU-145 prostate = test system: DU-145 prostate
EKVX NSCLC = test system: EKVX NSCLC
HCC-2998 colon = test system: HCC-2998 colon
HCT-116 colon = test system: HCT-116 colon
HCT-15 colon = test system: HCT-15 colon
HL-60(TB) leukemia = test system: HL-60(TB) leukemia
HOP-62 NSCLC = test system: HOP-62 NSCLC
HOP-92 NSCLC = test system: HOP-92 NSCLC
HS 578T breast = test system: HS 578T breast
HT29 colon = test system: HT29 colon
IGROV1 ovarian = test system: IGROV1 ovarian
K-562 leukemia = test system: K-562 leukemia
KM12 colon = test system: KM12 colon
LOX IMVI melanoma = test system: LOX IMVI melanoma
M14 melanoma = test system: M14 melanoma
MALME-3M melanoma = test system: MALME-3M melanoma
MCF7 breast = test system: MCF7 breast
MDA-MB-231 breast = test system: MDA-MB-231 breast
MDA-MB-435 = test system: MDA-MB-435
MDA-MB-468 breast = test system: MDA-MB-468 breast
NCI-H226 lung = test system: NCI-H226 lung
NCI-H23 lung = test system: NCI-H23 lung
NCI-H460 lung = test system: NCI-H460 lung
NCI-H522 lung = test system: NCI-H522 lung
NCI/ADR-RES ovarian = test system: NCI/ADR-RES ovarian
OVCAR-3 ovarian = test system: OVCAR-3 ovarian
OVCAR-4 ovarian = test system: OVCAR-4 ovarian
OVCAR-5 ovarian = test system: OVCAR-5 ovarian
OVCAR-8 ovarian = test system: OVCAR-8 ovarian
PC-3 prostate = test system: PC-3 prostate
RPMI-8226 leukemia = test system: RPMI-8226 leukemia
RXF 393 renal = test system: RXF 393 renal
SF-268 CNS = test system: SF-268 CNS
SF-295 CNS = test system: SF-295 CNS
SF-539 CNS = test system: SF-539 CNS
SK-MEL-2 melanoma = test system: SK-MEL-2 melanoma
SK-MEL-28 melanoma = test system: SK-MEL-28 melanoma
SK-MEL-5 melanoma = test system: SK-MEL-5 melanoma
SK-OV-3 ovarian = test system: SK-OV-3 ovarian
SN12C renal = test system: SN12C renal
SNB-19 CNS = test system: SNB-19 CNS
SNB-75 CNS = test system: SNB-75 CNS
SR leukemia = test system: SR leukemia
SW-620 colon = test system: SW-620 colon
T-47D breast = test system: T-47D breast
TK-10 renal = test system: TK-10 renal
U251 CNS = test system: U251 CNS
UACC-257 melanoma = test system: UACC-257 melanoma
UACC-62 melanoma = test system: UACC-62 melanoma
UO-31 renal = test system: UO-31 renal

## COc1ccc(-c2nc(S(=O)(=O)c3ccc(C)cc3)c(S(C)(=O)=O)o2)cc1
786-0 renal
  GI50: 1.64 µM
  TGI: 3.47 µM
A498 renal
  GI50: 14.3 µM
  TGI: 27.4 µM
A549 NSCLC
  GI50: 18.9 µM
  TGI: 39.4 µM
ACHN renal
  GI50: 1.72 µM
  TGI: 3.11 µM
BT-549 breast
  GI50: 3.39 µM
  TGI: 10 µM
CAKI-1 renal
  GI50: 2.82 µM
  TGI: 9.83 µM
CCRF-CEM leukemia
  GI50: 2.38 µM
  TGI: 6.43 µM
COLO 205 colon
  GI50: 2.21 µM
  TGI: 4.95 µM
DU-145 prostate
  GI50: 2.57 µM
  TGI: 6.82 µM
EKVX NSCLC
  GI50: 11 µM
  TGI: 25.4 µM
HCC-2998 colon
  GI50: 7.61 µM
  TGI: 21.1 µM
HCT-116 colon
  GI50: 1.78 µM
  TGI: 3.34 µM
HCT-15 colon
  GI50: 1.96 µM
  TGI: 4.2 µM
HL-60(TB) leukemia
  GI50: 1.8 µM
  TGI: 6.14 µM
HOP-62 NSCLC
  GI50: 20.2 µM
  TGI: 40 µM
HOP-92 NSCLC
  GI50: 3.03 µM
  TGI: 11.6 µM
HS 578T breast
  GI50: 5.35 µM
  TGI: 34 µM
HT29 colon
  GI50: 2.09 µM
  TGI: 4.37 µM
IGROV1 ovarian
  GI50: 7.16 µM
  TGI: 20.4 µM
K-562 leukemia
  GI50: 2.91 µM
  TGI: > 100 µM
KM12 colon
  GI50: 16.2 µM
  TGI: 32.2 µM
LOX IMVI melanoma
  GI50: 1.56 µM
  TGI: 2.96 µM
M14 melanoma
  GI50: 1.95 µM
  TGI: 4.59 µM
MALME-3M melanoma
  GI50: 1.45 µM
  TGI: 2.79 µM
MCF7 breast
  GI50: 2.14 µM
  TGI: 6.1 µM
MDA-MB-231 breast
  GI50: 1.73 µM
  TGI: 3.35 µM
MDA-MB-435
  GI50: 5.3 µM
  TGI: 19.6 µM
MDA-MB-468 breast
  GI50: 1.6 µM
  TGI: 3.23 µM
NCI-H226 lung
  GI50: 16.9 µM
  TGI: 38.5 µM
NCI-H23 lung
  GI50: 5.57 µM
  TGI: 19.1 µM
NCI-H460 lung
  GI50: 10.1 µM
  TGI: 24.1 µM
NCI-H522 lung
  GI50: 1.66 µM
  TGI: 3.28 µM
NCI/ADR-RES ovarian
  GI50: 12 µM
  TGI: 37.5 µM
OVCAR-3 ovarian
  GI50: 1.83 µM
  TGI: 3.37 µM
OVCAR-4 ovarian
  GI50: 3.1 µM
  TGI: 11.1 µM
OVCAR-5 ovarian
  GI50: 10.9 µM
  TGI: 23.1 µM
OVCAR-8 ovarian
  GI50: 10.5 µM
  TGI: 27.1 µM
PC-3 prostate
  GI50: 11.1 µM
  TGI: 25.6 µM
RPMI-8226 leukemia
  GI50: 3.05 µM
  TGI: 17.3 µM
RXF 393 renal
  GI50: 1.47 µM
  TGI: 2.94 µM
SF-268 CNS
  GI50: 12.5 µM
  TGI: 30 µM
SF-295 CNS
  GI50: 14.6 µM
  TGI: 27.8 µM
SF-539 CNS
  GI50: 1.83 µM
  TGI: 3.8 µM
SK-MEL-2 melanoma
  GI50: 14.3 µM
  TGI: 27.7 µM
SK-MEL-28 melanoma
  GI50: 3.2 µM
  TGI: 11 µM
SK-MEL-5 melanoma
  GI50: 12.8 µM
  TGI: 26.2 µM
SK-OV-3 ovarian
  GI50: 18.5 µM
  TGI: 35.1 µM
SN12C renal
  GI50: 4.94 µM
  TGI: 17.6 µM
SNB-19 CNS
  GI50: 15.1 µM
  TGI: 28.3 µM
SNB-75 CNS
  GI50: 11.3 µM
  TGI: 23.7 µM
SR leukemia
  GI50: 2.83 µM
  TGI: > 100 µM
SW-620 colon
  GI50: 1.66 µM
  TGI: 3.32 µM
T-47D breast
  GI50: 2.03 µM
  TGI: 4.55 µM
TK-10 renal
  GI50: 7.76 µM
  TGI: 21 µM
U251 CNS
  GI50: 17 µM
  TGI: 31.7 µM
UACC-257 melanoma
  GI50: 9.8 µM
  TGI: 23.1 µM
UACC-62 melanoma
  GI50: 7.59 µM
  TGI: 20.4 µM
UO-31 renal
  GI50: 3.43 µM
  TGI: 15.3 µM
